Test results taken from PMC9533837 (Antiviral Research, 2003).
Entries after “also recorded” stand apart in the source; their conditions may differ.

Test system: orthopoxviruses (VAR-BSH, VAR-YAM, VAR-GAR, MPX, CPX, VAC)
Assay: organism not typed
Type: cell-based

Which “inhibitory activity against the orthopoxviruses tested (in words)” value (“inhibitory activity” below) does the source give for Nc1ccn([C@H]2C=C[C@@H](CO)O2)c(=O)n1 [d4C, 2′,3′-dideoxydidehydrocytidine] here?
The value was “No other test compounds of this group (acyclovir, brovavir, lobucavir, didanosine, ddC, or d4C) showed any activity”.

For Nc1ccn([C@H]2CC[C@@H](CO)O2)c(=O)n1 [ddC, zalcitabine], which “inhibitory activity” value is on record?
The value was “No other test compounds of this group (acyclovir, brovavir, lobucavir, didanosine, ddC, or d4C) showed any activity”.

O=c1[nH]cnc2c1ncn2[C@H]1CC[C@@H](CO)O1 [didanosine] was tested. Which “inhibitory activity” value did it give?
Its value is “No other test compounds of this group (acyclovir, brovavir, lobucavir, didanosine, ddC, or d4C) showed any activity”.

With O=C1Nc2ccc(Cl)cc2[C@@](C#CC2CC2)(C(F)(F)F)O1 [efavirenz] as the compound, how does the “inhibitory activity” value read?
Its value is “inactive”.

How did the “inhibitory activity” value turn out when Nc1nc(=O)c2ncn([C@@H]3C[C@H](CO)[C@H]3CO)c2[nH]1 [lobucavir, [1R(1α,2β,3α)]-9-[2,3-bis(hydroxymethyl)cyclobutyl]guanine] was run?
Its value is “No other test compounds of this group (acyclovir, brovavir, lobucavir, didanosine, ddC, or d4C) showed any activity; also recorded: failed to inhibit orthopoxvirus replication”.

Which “inhibitory activity” value does the source give for Cc1c(O)cccc1C(=O)N[C@@H](CSc1ccccc1)[C@H](O)CN1C[C@H]2CCCC[C@H]2C[C@H]1C(=O)NC(C)(C)C [nelfinavir, Nelfinavir] here?
The value was “inactive”.

How did the “inhibitory activity” value turn out when CC(C)c1nc(CN(C)C(=O)N[C@H](C(=O)N[C@@H](Cc2ccccc2)C[C@H](O)[C@H](Cc2ccccc2)NC(=O)OCc2cncs2)C(C)C)cs1 [ritonavir, Ritonavir] was run?
The value was “inactive”.

Which “inhibitory activity” value does the source give for CC(C)(C)NC(=O)[C@@H]1C[C@@H]2CCCC[C@@H]2CN1C[C@@H](O)[C@H](Cc1ccccc1)NC(=O)[C@H](CC(N)=O)NC(=O)c1ccc2ccccc2n1 [saquinavir, Saquinavir] here?
The value was “inactive”.

How did the “inhibitory activity” value turn out when Cc1cn([C@H]2C=C[C@@H](CO)O2)c(=O)[nH]c1=O [stavudine] was run?
Its value is “inactive”.

How did the “inhibitory activity” value turn out when Cc1cn([C@H]2C[C@H](N=[N+]=[N-])[C@@H](CO)O2)c(=O)[nH]c1=O [zidovudine] was run?
The value was “inactive”.
